Data from patent US7320785B2, “Compositions and methods for modulation of DARPP-32 phosphorylation” (The Rockefeller University, priority 2001, dated 2008).
Marks after values point to notes of the source that are not given here.

Tests used:
DARPP-32 [1] = experiment: DARPP-32 phosphorylation in vivo in mice after i.p. injection, immunoblotting; set-up: species or system mouse
c-fos mRNA = c-fos mRNA expression by in situ hybridization in WT and DARPP-32 KO mice; format: in vivo, mouse; conditions: 5-HTP 50 mg/kg + carbidopa 50 mg/kg; 20 min postinjection
Method: Twenty minutes after the injections, the animals were killed by decapitation and their brains frozen at −80° C. Coronal sections were then made and processed for in situ hybridization experiments with a probe against c-fos mRNA. The expression of c-fos mRNA is widely used as a marker for the biochemical activity of neurons. Manipulations of the serotonergic system, by PCA (4 mg/kg) and 5-HTP (50 mg/kg+carbidopa 50 mg/kg), increased c-fos mRNA expression in several brain regions, including prefrontal cortex and striatum in DARPP-32 wild-type mice.

WT and DARPP-32 KO mice [2] = experiment: Locomotor activity measurements in activity monitors; format: in vivo, mouse; conditions: for locomotor activity and stereotypic behavior: 5-HTP 50 mg/kg i.p. 30 min after carbidopa 50 mg/kg
Method: Locomotor activity of WT and DARPP-32 KO mice was measured in activity monitors (43×44×45 cm) equipped with both horizontal and vertical sensors (Opto-Varimex, Columbus Instruments, Columbus, Ohio). Mice were acclimated to the boxes for 1 h, […] before the day of the experiment. The day of the experiment, mice were placed in the boxes for 20 min (habituation period) before drug administration. […] Locomotor activity parameters (distance traveled and stereotypic movements) were quantified by using the AutoTrack System (Columbus Instruments).

inhibitor-1 mRNA = experiment: Inhibitor-1 mRNA levels by in situ hybridization after chronic fluoxetine; format: in vivo, mouse; conditions: hippocampus, prefrontal cortex, striatum; fluoxetine 10 mg/kg i.p. once daily for 19 days
Method: (§1) Brains were rapidly dissected out and frozen at −80° C. Cryostat sections (12-μm) were prepared and hybridized with [α-^35S]UTP-labeled riboprobes prepared by in vitro transcription from cDNA clones corresponding to full-length clones of DARPP-32 or inhibitor-1 as described (21). After hybridization, the sections were exposed to Biomax MR film (Kodak) for 2 14 days and analyzed with a Microcomputer Imaging Device system (M4, Imaging Research, St. Catherine's, ON, Canada).

WT and DARPP-32 KO mice [3] = experiment: Tail-suspension test for antidepressant efficacy; format: in vivo, mouse; conditions: fluoxetine 5 or 10 mg/kg i.p. 30 min before the trial
DARPP-32 mRNA = DARPP-32 mRNA levels by in situ hybridization after chronic fluoxetine; format: in vivo, mouse; conditions: fluoxetine 10 mg/kg i.p. once daily for 19 days
Method: as §1

inhibitor-1 = experiment: Total inhibitor-1 protein levels after chronic treatment with fluoxetine; format: in vivo, mouse; conditions: chronic fluoxetine 10 mg/kg i.p.
Method: (§2) In all experiments, hippocampi, prefrontal cortices, and striata were rapidly dissected out and stored at −80° C. until assayed.

DARPP-32 [4] = experiment: DARPP-32 phosphorylation in mouse brain slices, immunoblotting with phosphorylation state-specific antibodies; conditions: slices from hippocampus, prefrontal cortex, striatum; fluoxetine 10 M printed
DARPP-32 [5] = experiment: Total DARPP-32 protein levels after chronic treatment with fluoxetine; format: in vivo, mouse; conditions: chronic fluoxetine 10 mg/kg i.p., compared with chronic saline
Method: as §2

[6] = forced-swim test and tail suspension test; cited from earlier work
[7] = Hippocampus, 5 mg/kg i.p., 15 min
[8] = Hippocampus, 10 mg/kg i.p., 15 min
[9] = Hippocampus, 20 mg/kg i.p., 15 min
[10] = Striatum, 10 mg/kg i.p., 15 min
[11] = Striatum, 20 mg/kg i.p., 15 min

## N[C@@H](Cc1c[nH]c2ccc(O)cc12)C(=O)O [5-HTP, 5-hydroxytryptophan]
DARPP-32 [1]; prefrontal cortex, 5-HTP 50 mg/kg i.p. after carbidopa, 15 min, n=5
  phospho-Thr75 DARPP-32: 74±8.0%
DARPP-32 [1]; prefrontal cortex, 5-HTP 50 mg/kg i.p. after carbidopa, 15 min, n=5 mice
  phospho-Thr34 DARPP-32: 144±8.3%
c-fos mRNA
  c-fos mRNA Levels in Striatum, DARPP-32 Knockout: 0.092(0.009)#*
  c-fos mRNA Levels in Striatum, DARPP-32 Wild-type: 0.195(0.017)*
WT and DARPP-32 KO mice [2]; DARPP-32 KO mice
  locomotor activity and stereotypic behavior: abolished
WT and DARPP-32 KO mice [2]; WT mice
  locomotor activity and stereotypic behavior: robust increase

## CNCCC(Oc1ccc(C(F)(F)F)cc1)c1ccccc1 (centres unmarked) [Fluoxetine]
DARPP-32 [1]; Cortex, 5 mg/kg i.p., 15 min
  Percent Phospho-Thr34: 144(7.4)* Percent
  Percent Phospho-Thr75: 86(7.0)* Percent
DARPP-32 [1]; Cortex, 10 mg/kg i.p., 15 min
  Percent Phospho-Thr34: 140(4.7)* Percent
  Percent Phospho-Thr75: 85(4.2)* Percent
DARPP-32 [1]; Cortex, 20 mg/kg i.p., 15 min
  Percent Phospho-Thr75: 82(7.3)* Percent
DARPP-32 [1]; [7]
  Percent Phospho-Thr34: 150(3.8)* Percent
  Percent Phospho-Thr75: 84(6.4)* Percent
DARPP-32 [1]; [8]
  Percent Phospho-Thr34: 142(6.2)* Percent
  Percent Phospho-Thr75: 87(3.0)* Percent
DARPP-32 [1]; [9]
  Percent Phospho-Thr34: 141(11.6)* Percent
  Percent Phospho-Thr75: 88(3.0)* Percent
DARPP-32 [1]; Striatum, 5 mg/kg i.p., 15 min
  Percent Phospho-Ser137: 120(8.7) Percent
  Percent Phospho-Thr34: 123(5.0)* Percent
  Percent Phospho-Thr75: 95(3.1) Percent
DARPP-32 [1]; [10]
  Percent Phospho-Ser102: 108(7.5) Percent
  Percent Phospho-Thr34: 155.2(12.9)* Percent
  Percent Phospho-Thr75: 84.6(8.9)* Percent
DARPP-32 [1]; [11]
  Percent Phospho-Thr34: 141(7.6)* Percent
  Percent Phospho-Thr75: 92(2.1)* Percent
DARPP-32 [1]; chronic fluoxetine 10 mg/kg 19 days, challenged with saline, versus chronic saline/saline, normalized to total DARPP-32
  fraction of DARPP-32 phosphorylated at Thr-34, Thr-75, or Ser-137: no differences
DARPP-32 [1]; striatum, chronic fluoxetine 10 mg/kg 19 days, challenge 10 mg/kg
  ability of a challenge to increase phosphorylation at Ser-137: abolished
inhibitor-1 mRNA
  inhibitor-1 mRNA expression: no effects
WT and DARPP-32 KO mice [3]; DARPP-32 KO mice
  effect on immobility in the tail-suspension test: strongly attenuated
WT and DARPP-32 KO mice [3]; WT mice, 5 min trial
  immobility in the tail-suspension test: decreased immobility
DARPP-32 mRNA; hippocampus and frontal cortex
  DARPP-32 mRNA expression: increased
DARPP-32 mRNA; striatum
  DARPP-32 mRNA expression: not in striatum
WT and DARPP-32 KO mice [2]; fluoxetine at the doses examined (5 or 10 mg/kg)
  locomotion: not significantly affected
inhibitor-1; hippocampus
  total inhibitor-1 protein: 98%
inhibitor-1; prefrontal cortex
  total inhibitor-1 protein: 102%
inhibitor-1; striatum
  total inhibitor-1 protein: 97%
DARPP-32 [4]
  effect of fluoxetine alone on DARPP-32 phosphorylation: no effect
DARPP-32 [5]; hippocampus
  total DARPP-32 protein: 121%
DARPP-32 [5]; prefrontal cortex
  total DARPP-32 protein: 123%
DARPP-32 [5]; striatum
  total DARPP-32 protein: 102%

## CC(CNS(=O)(=O)C(C)C)c1ccc(-c2ccsc2)cc1 (centres unmarked) [LY392098]
[6]
  antidepressant-like actions: robust antidepressant-like actions
